Test results: ChEMBL document CHEMBL1152888, “Synthesis, pharmacological and in silico evaluation of 1-(4-di-hydroxy-3,5-dioxa-4-borabicyclo[4.4.0]deca-7,9,11-trien-9-yl)-2-(tert-butylamino)ethanol, a compound designed to act as a beta2 adrenoceptor agonist” (Eur J Med Chem, 2009)
The source made the active and inactive calls. The calls are words filed in the database; no cut-off is given here.

Tests used:
[1] = molecular target: T1, Beta-2 adrenergic receptor (Cavia porcellus, UniProt Q8K4Z4); assay: (§1) Agonist activity at adrenergic beta2 receptor in Hartley guinea pig tracheal ring assessed as bronchorelaxation activity against histamine-induced contraction; type: functional, tissue-based, Trachea
[2] = molecular target: Beta-2 adrenergic receptor (Cavia porcellus) (UniProt Q8K4Z4); assay: as §1; type: functional, tissue-based; conditions: Trachea
[3] = molecular target: T1, Beta-2 adrenergic receptor; assay: Binding affinity to adrenergic beta2 receptor in Hartley guinea pig tracheal ring
[4] = molecular target: Beta-2 adrenergic receptor (Cavia porcellus) (UniProt Q8K4Z4); assay: Agonist activity at adrenergic beta2 receptor in Hartley guinea pig tracheal ring assessed as bronchorelaxation activity against histamine-induced contraction in presence of ICI-118551; type: functional, tissue-based; conditions: Trachea
[5] = molecular target: T1, Beta-2 adrenergic receptor; assay: (§2) Agonist activity at adrenergic beta2 receptor in Hartley guinea pig tracheal ring assessed as bronchorelaxation activity against carbachol-induced contraction; type: functional, tissue-based, Trachea
[6] = molecular target: Beta-2 adrenergic receptor (Cavia porcellus) (UniProt Q8K4Z4); assay: as §2; type: functional, tissue-based; conditions: Trachea
[7] = molecular target: Beta-2 adrenergic receptor (Cavia porcellus) (UniProt Q8K4Z4); assay: Agonist activity at adrenergic beta2 receptor in Hartley guinea pig tracheal ring assessed as maximum bronchorelaxation activity against histamine-induced contraction at 1 uM; type: functional, tissue-based; conditions: Trachea
[8] = molecular target: Beta-2 adrenergic receptor (Cavia porcellus) (UniProt Q8K4Z4); assay: Agonist activity at adrenergic beta2 receptor in Hartley guinea pig tracheal ring assessed as maximum bronchorelaxation activity against carbachol-induced contraction at 1 uM; type: functional, tissue-based; conditions: Trachea
[9] = molecular target: Beta-2 adrenergic receptor (Cavia porcellus) (UniProt Q8K4Z4); assay: Agonist activity at adrenergic beta2 receptor in Hartley guinea pig tracheal ring assessed as bronchorelaxation activity against histamine-induced contraction in presence of propranolol; type: functional, tissue-based; conditions: Trachea
[10] = molecular target: Beta-2 adrenergic receptor (Homo sapiens, UniProt P07550)
Beta-2 adrenergic receptor (Homo sapiens, UniProt P07550), sequence (P07550 whole entry): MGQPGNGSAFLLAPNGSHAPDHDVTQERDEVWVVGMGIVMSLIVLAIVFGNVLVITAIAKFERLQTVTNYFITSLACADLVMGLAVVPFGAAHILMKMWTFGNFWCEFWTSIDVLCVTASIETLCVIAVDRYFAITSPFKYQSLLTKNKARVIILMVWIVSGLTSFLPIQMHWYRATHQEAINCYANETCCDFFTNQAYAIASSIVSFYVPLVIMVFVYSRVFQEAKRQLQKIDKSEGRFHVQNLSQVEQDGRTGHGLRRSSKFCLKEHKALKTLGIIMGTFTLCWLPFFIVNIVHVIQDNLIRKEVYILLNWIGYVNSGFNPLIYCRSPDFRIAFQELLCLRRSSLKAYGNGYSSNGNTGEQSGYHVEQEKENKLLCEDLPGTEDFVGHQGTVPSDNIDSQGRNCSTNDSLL
Description: Binding affinity to human adrenergic beta2 receptor

T1 sequence (Q8K4Z4 whole entry): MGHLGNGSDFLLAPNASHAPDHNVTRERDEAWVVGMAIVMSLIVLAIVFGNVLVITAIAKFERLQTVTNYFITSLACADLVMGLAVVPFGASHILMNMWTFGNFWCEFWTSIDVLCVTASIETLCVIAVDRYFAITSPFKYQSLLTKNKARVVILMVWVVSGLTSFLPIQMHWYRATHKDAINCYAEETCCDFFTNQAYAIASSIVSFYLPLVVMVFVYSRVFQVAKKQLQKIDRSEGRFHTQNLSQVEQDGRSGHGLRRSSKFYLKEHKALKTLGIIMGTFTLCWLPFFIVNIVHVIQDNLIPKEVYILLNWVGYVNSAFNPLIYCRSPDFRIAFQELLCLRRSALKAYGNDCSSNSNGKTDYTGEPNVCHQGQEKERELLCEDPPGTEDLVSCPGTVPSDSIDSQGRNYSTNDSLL
Beta-2 adrenergic receptor (Cavia porcellus), sequence (Q8K4Z4 whole entry, looked up): as the sequence (Q8K4Z4 whole entry) above

Compound	EC50 [1]	Activity [2]	Kd [3]	Activity [4]	EC50 [5]	Activity [6]	Activity [7]	Activity [8]	Activity [9]	Kd [10]
CC(C)(C)NC[C@@H](O)c1ccc(OB(O)O)c(CO)c1	0.072 nM	Dose-dependent effect	110 nM	inactive	2.1 nM	Dose-dependent effect	Active	Active	inactive	–
CC(C)(C)NCC(O)c1ccc(O)c(CO)c1 (centres undefined)	–	Dose-dependent effect	–	inactive	–	Dose-dependent effect	–	–	inactive	–
CC(C)NCC(O)c1cc(O)cc(O)c1 (centres undefined) [METAPROTERENOL]	–	–	–	–	–	–	–	–	–	4810 nM
